Earlier results, collected in patent US5308833A, “Method for treating hepatitis B carriers with minimal disease” (SciClone Pharmaceuticals, priority 1992, dated 1994).
Where no end group is shown, it is not given here.

How the values were obtained:
[1] = test system: hepatitis B virus
[2] = test system: lymphocyte; settings: individuals suffering from chronic active hepatitis B

For “thymosin α-1 (SDAAVDTSSEITTKDLKEKKEVVEEAEN; ends and bridges not checked; UniProt P06454 2-29, looked up) [28 amino acid peptide originally isolated from calf thymus thymosin fraction 5]”, the “hepatitis B virus DNA in serum” value ([1]; patients with chronic active hepatitis B administered the peptide) is listed as “cleared hepatitis B virus DNA from serum”, the “serum HBV DNA after treatment was terminated” value ([1]; patients with chronic active hepatitis B, after treatment was terminated) is listed as “tested persistently negative for serum HBV DNA” and the lymphocyte counts [2] is listed as “increases in lymphocyte counts”. For the same substance, the “production of γ-interferon” value [2] was “enhance production of γ-interferon”.
